Measured values: patent publication US20250051290A1, “NOVEL COMPOUND FOR IMPROVING SLEEP OR USE THEREOF” (Ajou University Industry-Academic Cooperation Foundation, priority 2021, published 2025)

Target: T1, adenosine A1 receptor (Homo sapiens, UniProt P30542)
T1 construct: expressed in transfected cells; cells use mitochondrial aequorin
T1 sequence (P30542 1-326): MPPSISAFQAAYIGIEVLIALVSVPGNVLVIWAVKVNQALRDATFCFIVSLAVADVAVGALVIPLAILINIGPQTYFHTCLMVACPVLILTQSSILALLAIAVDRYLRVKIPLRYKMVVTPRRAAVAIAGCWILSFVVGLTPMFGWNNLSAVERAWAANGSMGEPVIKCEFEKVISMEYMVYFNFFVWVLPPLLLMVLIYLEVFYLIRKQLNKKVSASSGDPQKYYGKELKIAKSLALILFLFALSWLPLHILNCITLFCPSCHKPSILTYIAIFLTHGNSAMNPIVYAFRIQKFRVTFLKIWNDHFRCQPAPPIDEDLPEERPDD
Experiment: Adenosine A1 receptor agonistic activity, aequorin calcium luminescence in A1-overexpressing cell line
Assay type: cell-based
Settings: for activation at 10 µM: compound concentration 10 μM; for activation at 10 µM / activation at 50 µM: read-out: agonistic effect on A1 receptor, response relative to adenosine as 100%; for activation at 50 µM: compound concentration 50 μM
Excerpt: The intracellular endoplasmic reticulum has the function of storing calcium ions and releasing them when necessary. It is responsible for managing and maintaining the overall physiological activities of the human body, such as contracting muscles and promoting hormone secretion by releasing calcium ions. This mechanism has been applied as a universal and accurate method to study the activity of G protein-coupled receptors (GPCRs), and the method of measuring calcium ions, which are the final measurement target, has been developed into various methods including fluorescent substances. The present inventors tried to use chemical luminescence through aequorin to evaluate the agonistic efficacy of the compounds subject to development. To this end, a cell line overexpressing an adenosine receptor (adenosine receptor subtype 1, A1), which targets calcium ions released from the intracellular endoplasmic reticulum, was used, and the concentration of calcium ions released instantaneously was measured using a cell function screening system based on the luminescence phenomenon through mitochondrial aequorin.
Cells into which an A1 receptor gene was inserted through transformation were washed with 10 ml of PBS after 48 hours of culture, and then the cells were isolated and centrifuged at 1,000×g for 5 minutes. The precipitated cells were treated with a basic buffer solution (Dulbecco's Modified Eagle's Medium (DMEM)/HAM's F12 without phenol red, with L-glutamate, 15 mM hydroxyethyl piperazine ethane sulfonic acid (HEPES), pH 7.0, 0.1% bovine serum albumin (BSA)), coelenterazine h was added to a concentration of 2×10^6 cells/ml, and then light was blocked. The cells were allowed to react with coelenterazine h using a rotator at room temperature. After four hours of reaction, the reaction mixture was diluted 10 times with a basic buffer solution to adjust the concentration to 2×10^5 cells/ml and allowed to stand for 60 minutes under the same conditions as before.
To confirm the agonistic activity of the novel compounds of the present invention, the previously prepared cells were plated in a 96-well black plate (Corning 3915) containing adenosine ([…]-4.57 nM) at 50 µl/well (5,000 cells/well), and then the resulting signal value was measured. To confirm the calcium signal changing activity (agonistic activity) of the compounds subject to development, the prepared cells were plated in a 96-well plate containing 50 μl/well of the compound sample at 50 μl/well and allowed to react for 30 minutes. Thereafter, 50 μl/well of adenosine (3 μM) was injected to confirm the reaction. The light emitted due to cell activity was measured and recorded using a Mithras 960 MultiLabel Reader. The measured value (area under the curve (AUC) integrated signal) was expressed in relative light units (RLU). To ensure the accuracy of the experimental data, the experiment was performed at at least two concentrations ([…] and 50 μM) with three samples of the same compound, and EC50 values calculated when necessary were compared and analyzed with the values obtained through at least three experiments.
As a result, the results shown in Table 1 below and FIG. 5 were obtained. Each value was obtained by assuming the response of […] adenosine as 100% and converting the ratio into percentage. The greater the value, the greater the agonistic effect.

activation at 10 µM	activation at 50 µM	EC50 (dose-response, FIG. 5)	SMILES
23.7%	246%		CCNc1nc(NCc2ccco2)c2ccccc2n1 [AR-001, N^2-ethyl-N^4-(furan-2-ylmethyl)quinazoline-2,4-diamine]
-1.5%	1.3%		CN(C)c1nc(NCc2ccco2)nc2ccccc12 [AR-002, N^2-(furan-2-ylmethyl)-N^4,N^4-dimethylquinazoline-2,4-diamine]
-1.1%	3.9%		CC(Nc1nc(NC2CC2)nc2ccccc12)c1ccccc1 (stereo not drawn) [AR-003, N^2-cyclopropyl-N^4-(1-phenylethyl)quinazoline-2,4-diamine]
-0.7%	-0.8%		c1ccc2c(N3CCCC3)nc(NCc3ccc4c(c3)OCO4)nc2c1 [AR-004, N-(benzo[d][1,3]dioxol-5-ylmethyl)-4-(pyrrolidin-1-yl)quinazolin-2-amine]
0.2%	251%		c1coc(CNc2nc(NCc3ccco3)c3ccccc3n2)c1 [AR-005, N^2,N^4-bis(furan-2-ylmethyl)quinazoline-2,4-diamine]
170%	289%	6.95 µM	c1coc(CNc2nc(NC3CC3)nc3ccccc23)c1 [AR-006, N^2-cyclopropyl-N^4-(furan-2-ylmethyl)quinazoline-2,4-diamine]
-1.1%	12%		c1coc(CNc2nc(NCc3ccc4c(c3)OCO4)nc3ccccc23)c1 [AR-007, N^2-(benzo[d][1,3]dioxol-5-ylmethyl)-N^4-(furan-2-ylmethyl)quinazoline-2,4-diamine]
0.4%	2.6%		CCNc1nc(N(C)C)c2ccccc2n1 [AR-008, N^2-ethyl-N^4,N^4-dimethylquinazoline-2,4-diamine]
-1.2%	14.6%		CN(C)c1nc(NC2CC2)nc2ccccc12 [AR-009, N^2-cyclopropyl-N^4,N^4-dimethylquinazoline-2,4-diamine]
2.1%	240%		CN(C)c1nc(NCc2ccc3c(c2)OCO3)nc2ccccc12 [AR-010, N^2-(benzo[d][1,3]dioxol-5-ylmethyl)-N^4,N^4-dimethylquinazoline-2,4-diamine]
-0.4%	42.8%		CCNc1nc(NC(C)c2ccccc2)c2ccccc2n1 (stereo not drawn) [AR-011, N^2-ethyl-N^4-(1-phenylethyl)quinazoline-2,4-diamine]
-0.6%	6.4%		CC(Nc1nc(NCc2ccco2)nc2ccccc12)c1ccccc1 (stereo not drawn) [AR-012, N^2-(furan-2-ylmethyl)-N^4-(1-phenylethyl)quinazoline-2,4-diamine]
0.8%	-0.4%		CC(Nc1nc(NCc2ccc3c(c2)OCO3)nc2ccccc12)c1ccccc1 (stereo not drawn) [AR-013, N^2-(benzo[d][1,3]dioxol-5-ylmethyl)-N^4-(1-phenylethyl)quinazoline-2,4-diamine]
-0.9%	25.1%		CCNc1nc(N2CCCC2)c2ccccc2n1 [AR-014, N-ethyl-4-(pyrrolidin-1-yl)quinazolin-2-amine]
28.6%	219%		c1coc(CNc2nc(N3CCCC3)c3ccccc3n2)c1 [AR-015, N-(furan-2-ylmethyl)-4-(pyrrolidin-1-yl)quinazolin-2-amine]
3.7%	101%		c1ccc2c(N3CCCC3)nc(NC3CC3)nc2c1 [AR-016, N-cyclopropyl-4-(pyrrolidin-1-yl)quinazolin-2-amine]
0.6%	0.9%		COc1cc2nc(NC3CC3)nc(N3CCCC3)c2cc1OC [AR-017, N-cyclopropyl-6,7-dimethoxy-4-(pyrrolidin-1-yl)quinazolin-2-amine]
1%	0%		CCNc1nc(NCc2ccco2)c2cc(OC)c(OC)cc2n1 [AR-018, N^2-ethyl-N^4-(furan-2-ylmethyl)-6,7-dimethoxyquinazoline-2,4-diamine]
-0.3%	0%		COc1cc2nc(NCc3ccco3)nc(N(C)C)c2cc1OC [AR-019, N^2-(furan-2-ylmethyl)-6,7-dimethoxy-N^4,N^4-dimethylquinazoline-2,4-diamine]
0.3%	-0.7%		CCNc1nc(N2CCCC2)c2cc(OC)c(OC)cc2n1 [AR-020, N-ethyl-6,7-dimethoxy-4-(pyrrolidin-1-yl)quinazolin-2-amine]
1.8%	0.1%		c1ccc2c(N3CCCC3)nc(N3CCCC3)nc2c1 [AR-021, 2,4-di(pyrrolidin-1-yl)quinazoline]
-0.5%	0%		CN(C)c1nc(N2CCCC2)c2ccccc2n1 [AR-022, N,N-dimethyl-4-(pyrrolidin-1-yl)quinazolin-2-amine]
1.7%	47.8%		CC(Nc1nc(N2CCCC2)c2ccccc2n1)c1ccccc1 (stereo not drawn) [AR-023, N-(1-phenylethyl)-4-(pyrrolidin-1-yl)quinazolin-2-amine]
-0.7%	0.1%		O=C(NCCNc1nc(N2CCCC2)c2ccccc2n1)c1ccc(O)c(O)c1 [AR-024, 3,4-Dihydroxy-N-(2-((4-(pyrrolidin-1-yl)quinazolin-2-yl)amino)ethyl)benzamide]
-1.6%	0.4%		Oc1cc2nc(NC3CC3)nc(N3CCCC3)c2cc1O [AR-025, 2-(Cyclopropylamino)-4-(pyrrolidin-1-yl)quinazoline-6,7-diol]
-0.6%	0%		CN(C)c1nc(NCc2ccco2)nc2cc(O)c(O)cc12 [AR-026, 4-(Dimethylamino)-2-((furan-2-ylmethyl)amino)quinazoline-6,7-diol]
0.2%	1.1%		CCNc1nc(N2CCCC2)c2cc(O)c(O)cc2n1 [AR-027, 2-(Ethylamino)-4-(pyrrolidin-1-yl)quinazoline-6,7-diol]
-0.3%	-1.1%		CCNc1nc(NCc2ccco2)c2cc(O)c(O)cc2n1 [AR-028, 2-(Ethylamino)-4-((furan-2-ylmethyl)amino)quinazoline-6,7-diol]
